Results taken from article doi:10.1101/2021.06.10.447950v1 (biorxiv, 2021).

Legend:
Experiment in all cases: fluorogenic peptidase assay, initial rate
Type in all cases: biochemical
cathepsin B = cathepsin B (Homo sapiens, UniProt P07858)
cathepsin K = target: T1, cathepsin K (Homo sapiens, UniProt P43235)
T1 sequence (P43235 115-329): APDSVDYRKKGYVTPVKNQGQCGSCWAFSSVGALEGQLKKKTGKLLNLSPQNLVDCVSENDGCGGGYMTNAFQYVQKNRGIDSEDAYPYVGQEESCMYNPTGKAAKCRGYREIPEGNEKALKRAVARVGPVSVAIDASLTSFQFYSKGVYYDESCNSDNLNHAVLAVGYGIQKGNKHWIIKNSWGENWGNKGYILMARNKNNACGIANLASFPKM

cathepsin L = cathepsin L (Homo sapiens, UniProt P07711)
cathepsin L, sequence (P07711 114-288): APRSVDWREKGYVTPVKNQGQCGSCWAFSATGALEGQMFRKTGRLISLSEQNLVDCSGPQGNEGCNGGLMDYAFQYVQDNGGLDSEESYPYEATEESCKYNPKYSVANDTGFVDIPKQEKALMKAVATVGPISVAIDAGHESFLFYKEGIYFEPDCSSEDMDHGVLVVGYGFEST
cathepsin L, sequence (P07711 292-333): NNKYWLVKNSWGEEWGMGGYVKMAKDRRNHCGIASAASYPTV

Q: What does the source list for `CC(C)C[C@H](NC(=O)[C@@H](NC(=O)OCc1ccccc1)C(C)C)C(=O)N[C@H](C=O)C[C@@H]1CCNC1=O` [MPI3]?
A: IC50 (cathepsin B): 112 ± 10 nM; IC50 (cathepsin K): 1.18 ± 0.18 nM; IC50 (cathepsin L): 0.3 ± 0.07 nM

Q: For `CC(C)C[C@H](NC(=O)[C@@H](NC(=O)/C=C/c1ccc(Cl)cc1F)C(C)C)C(=O)N[C@H](C=O)C[C@@H]1CCNC1=O` [MPI9], which IC50 (cathepsin B) is on record?
A: Its IC50 is 147 ± 10 nM.

Q: What about the IC50 (cathepsin K) of the same compound?
A: Its IC50 is 1.5 ± 0.2 nM.

Q: And the IC50 (cathepsin L)?
A: The IC50 was 0.56 ± 0.06 nM.

Q: For `O=C[C@H](C[C@@H]1CCNC1=O)NC(=O)[C@H](CC1CCCCC1)NC(=O)c1cc2ccccc2[nH]1` [11a], which IC50 (cathepsin B) is on record?
A: Its IC50 is 4.9 ± 0.4 nM.

Q: And the IC50 (cathepsin K)?
A: Its IC50 is 1.4 ± 0.2 nM.

Q: And the IC50 (cathepsin L)?
A: The IC50 was 0.14 ± 0.04 nM.

Q: Which IC50 (cathepsin B) does the source give for `CC(C)[C@H](NC(=O)OCc1ccccc1)C(=O)N[C@@H](CC1CCCCC1)C(=O)N[C@H](C=O)C[C@@H]1CCNC1=O` [MPI5] here?
A: Its IC50 is 80 ± 6 nM.

Q: What about the IC50 (cathepsin K) of the same compound?
A: Its IC50 is 134 ± 18 nM.

Q: And the IC50 (cathepsin L)?
A: The IC50 was 2.3 ± 1.9 nM.

Q: How did the IC50 (cathepsin B) turn out when `CC(C)C[C@H](NC(=O)[C@@H](NC(=O)OCc1ccccc1)[C@@H](C)OC(C)(C)C)C(=O)N[C@H](C=O)C[C@@H]1CCNC1=O` [MPI6] was run?
A: Its IC50 is 380 ± 21 nM.

Q: What about the IC50 (cathepsin K) of the same compound?
A: Its IC50 is 1.07 ± 0.21 nM.

Q: And the IC50 (cathepsin L)?
A: Its IC50 is 0.45 ± 0.08 nM.

Q: What does the source list for `CC(C)[C@H](NC(=O)OCc1ccccc1)C(=O)N[C@@H](Cc1ccccc1)C(=O)N[C@H](C=O)C[C@@H]1CCNC1=O` [MPI4]?
A: IC50 (cathepsin B): 46 ± 3 nM; IC50 (cathepsin K): 49 ± 16 nM; IC50 (cathepsin L): 0.33 ± 0.04 nM

Q: Which IC50 (cathepsin B) does the source give for `O=C[C@H](C[C@@H]1CCNC1=O)NC(=O)[C@H](Cc1ccccc1)NC(=O)/C=C/c1ccc(Cl)cc1F` [MPI2] here?
A: Its IC50 is 4.1 ± 0.4 nM.

Q: And the IC50 (cathepsin K)?
A: The IC50 was 0.78 ± 0.06 nM.

Q: And the IC50 (cathepsin L)?
A: The IC50 was 0.19 ± 0.03 nM.

Q: With `C[C@@H](OC(C)(C)C)[C@H](NC(=O)OCc1ccccc1)C(=O)N[C@@H](Cc1ccccc1)C(=O)N[C@H](C=O)C[C@@H]1CCNC1=O` [MPI7] as the compound, how does the IC50 (cathepsin B) read?
A: The IC50 was 64 ± 7 nM.

Q: And the IC50 (cathepsin K)?
A: The IC50 was 51 ± 6 nM.

Q: What about the IC50 (cathepsin L) of the same compound?
A: The IC50 was 0.61 ± 0.15 nM.

Q: For `C[C@@H](OC(C)(C)C)[C@H](NC(=O)OCc1ccccc1)C(=O)N[C@@H](CC1CCCCC1)C(=O)N[C@H](C=O)C[C@@H]1CCNC1=O` [MPI8], which IC50 (cathepsin B) is on record?
A: Its IC50 is 230 ± 20 nM.

Q: Which results are given for `O=C[C@H](C[C@@H]1CCNC1=O)NC(=O)[C@H](Cc1ccccc1)NC(=O)OCc1ccccc1` [MPI1]?
A: IC50 (cathepsin B): 25 ± 2 nM; IC50 (cathepsin K): 0.88 ± 0.12 nM; IC50 (cathepsin L): 0.079 ± 0.029 nM
